Reference: doi:10.1101/202341v1, “A cell-free synthetic biochemistry platform for raspberry ketone production” (biorxiv, 2017)

Legend:
CurA [1] = target: T1, CurA (Escherichia coli, UniProt P76113); experiment: ligand fluorescence (excitation […] nm, emission […] nm); assay type: binding; details: apo-CurA without NADPH; titration 0-100 uM curcumin with 25 uM CurA; also reduced as substrate when NADPH is added
T1 construct: N-terminal His6-tag; expressed in E. coli BL21 Gold (DE3) pLysS; apo form
T1 sequence (P76113 1-345): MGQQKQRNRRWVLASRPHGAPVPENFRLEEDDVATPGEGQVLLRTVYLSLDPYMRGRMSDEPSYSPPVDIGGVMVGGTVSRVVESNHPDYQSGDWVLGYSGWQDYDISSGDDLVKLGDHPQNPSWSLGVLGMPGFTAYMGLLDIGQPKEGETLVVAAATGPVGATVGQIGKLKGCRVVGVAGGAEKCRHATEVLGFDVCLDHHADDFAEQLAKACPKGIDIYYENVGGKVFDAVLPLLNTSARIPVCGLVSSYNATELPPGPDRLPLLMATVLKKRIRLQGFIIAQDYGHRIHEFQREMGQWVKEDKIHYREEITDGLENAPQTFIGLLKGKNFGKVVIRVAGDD

CurA [2] = target: T1, CurA; experiment: ligand fluorescence in one-pot enzymatic synthesis; assay type: binding; details: 25 uM CurA without NADPH; BDMC formed in situ by TAL, PCL, MatB and CUS
TAL = target: T2, TAL (Rhodotorula glutinis, UniProt U5TV35); experiment: individual enzyme activity assay; assay type: biochemical
T2 construct: synthetic gene codon optimised for E. coli; expressed in E. coli BL21-Gold (DE3)
T2 sequence (U5TV35 1-693): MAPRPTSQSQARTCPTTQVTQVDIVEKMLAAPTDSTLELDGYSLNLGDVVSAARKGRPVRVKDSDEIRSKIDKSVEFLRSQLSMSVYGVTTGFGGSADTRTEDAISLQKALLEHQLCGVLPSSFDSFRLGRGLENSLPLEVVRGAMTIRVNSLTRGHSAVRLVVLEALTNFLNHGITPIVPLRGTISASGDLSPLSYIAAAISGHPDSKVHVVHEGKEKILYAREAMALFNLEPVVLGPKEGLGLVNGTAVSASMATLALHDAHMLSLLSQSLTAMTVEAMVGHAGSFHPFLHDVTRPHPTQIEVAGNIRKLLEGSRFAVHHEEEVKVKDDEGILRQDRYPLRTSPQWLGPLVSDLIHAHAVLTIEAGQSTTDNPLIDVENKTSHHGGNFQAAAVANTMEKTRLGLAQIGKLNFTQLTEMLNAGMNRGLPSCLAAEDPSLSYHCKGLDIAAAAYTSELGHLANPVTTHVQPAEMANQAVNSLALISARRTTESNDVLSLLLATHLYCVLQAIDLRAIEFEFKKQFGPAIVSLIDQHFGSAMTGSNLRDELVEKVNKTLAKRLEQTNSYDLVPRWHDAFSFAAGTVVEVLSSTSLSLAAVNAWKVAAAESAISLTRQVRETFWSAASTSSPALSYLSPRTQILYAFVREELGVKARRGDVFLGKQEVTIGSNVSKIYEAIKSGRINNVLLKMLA

COc1cc(/C=C/C(=O)CC(=O)/C=C/c2ccc(O)c(OC)c2)ccc1O [curcumin]
ligand fluorescence (excitation 425 nm, emission 520 nm) (CurA [1]): CurA could bind curcumin in the absence of NADPH

O=C(/C=C/c1ccc(O)cc1)CC(=O)/C=C/c1ccc(O)cc1 [BDMC]
ligand fluorescence in one-pot enzymatic synthesis (CurA [2]): used in the absence of NADPH to bind to BDMC/curcumin

N[C@@H](Cc1ccc(O)cc1)C(=O)O [tyrosine]
individual enzyme activity assay (TAL): The activity of TAL and PCL enzymes was also assayed individually
